Target: T1, plasma albumin (Rattus norvegicus, UniProt P02770)
T1 construct: from tissue; host or cells: plasma of SD rats (carbon tetrachloride cirrhosis model and healthy controls)
Assay: L-tryptophan binding rate to plasma albumin (ultrafiltration, LC/MS)
Assay type: in vitro ADME
Conditions: 37° C., n=2
Procedure: As a cirrhosis model rat, 25-week-old male SD rats (n=2) were prepared by administering carbon tetrachloride twice a week for 18 consecutive weeks and used, and 10-week-old healthy SD rats (n=2) were used as a control.
The plasma was preincubated at 37° C. for 20 min, 10 μL of L-tryptophan solution (10 mM) was added per 1 mL of plasma and they were mixed well (A). Solution A (450 μL) was dispensed to an ultrafiltration tube (Millipore, molecular weight 30,000 cut) and centrifuged at 3,000 g for 5 min at 37° C. to give 50 μL of filtrate (B) and 50 μL of unfiltrated solution (C). An equivalent amount of 8% (w/v) TCA solution was added to each of A and B, mixed and the mixture was centrifuged at room temperature and 3,000 g for 5 min. A protein-free supernatant was recovered. Thereto was added a 4-fold amount of 0.125% (v/v) heptafluorobutyric acid (HFBA) solution, mixed, diluted with 0.1% HFBA so that the concentration would fall within the range defined by the standard curve. Then, the concentration of L-tryptophan in each sample was quantified by the LC/MS method. The L-tryptophan binding rate to plasma albumin was shown by [1-(Trp concentration (B)/Trp concentration (A))]×100(%). The recovery rate was calculated by [Trp concentration (B)×50 μL+Trp concentration (C)×400 μL]/[Trp concentration (A)×450 μL]×100(%).

T1 sequence (P02770 25-608): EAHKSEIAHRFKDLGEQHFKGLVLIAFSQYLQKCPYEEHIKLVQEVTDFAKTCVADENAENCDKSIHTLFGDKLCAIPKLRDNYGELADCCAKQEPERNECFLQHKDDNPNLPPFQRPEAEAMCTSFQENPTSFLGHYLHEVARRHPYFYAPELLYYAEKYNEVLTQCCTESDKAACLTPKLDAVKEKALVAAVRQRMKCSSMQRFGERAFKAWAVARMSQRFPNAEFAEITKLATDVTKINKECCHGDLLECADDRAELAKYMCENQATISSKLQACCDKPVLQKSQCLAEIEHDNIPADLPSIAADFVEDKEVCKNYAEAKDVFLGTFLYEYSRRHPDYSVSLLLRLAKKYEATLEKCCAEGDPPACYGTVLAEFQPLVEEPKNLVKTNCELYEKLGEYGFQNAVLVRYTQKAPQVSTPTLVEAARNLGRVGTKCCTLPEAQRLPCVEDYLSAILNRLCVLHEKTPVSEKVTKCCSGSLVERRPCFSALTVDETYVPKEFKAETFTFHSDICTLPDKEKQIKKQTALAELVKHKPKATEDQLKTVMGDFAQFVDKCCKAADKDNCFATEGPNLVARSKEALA

N[C@@H](Cc1c[nH]c2ccccc12)C(=O)O [L-tryptophan]
L-tryptophan binding rate to albumin (plasma of cirrhosis model rats (carbon tetrachloride, 18 weeks)): 48% | L-tryptophan binding rate to albumin (plasma of normal (healthy SD) rats): 83%

Reference: patent publication US20080161399A1 (Ajinomoto Co., Inc., priority 2005, published 2008)
